Reference: doi:10.1101/2023.07.10.548257 (bioRxiv, 2024)
Residue numbers refer to the chain shown, from its start.

How the values were obtained:
[1] = target: T1, full-length SHP2^WT (Homo sapiens, UniProt Q06124); assay: SHP2 activation assay using phosphopeptides (DiFMUP), SHP2 WT; assay type: biochemical; conditions: activation of full-length SHP2 WT (0.05 nM) by phosphopeptide; DiFMUP substrate; 60 mM HEPES pH 7.2, 75 mM KCl, 75 mM NaCl, 1 mM EDTA, 0.05% Tween-20, 0.5 mM TCEP; fluorescence read every 25 s for 6 min; mean of N (column N)
T1 construct: Full-length SHP2 constructs were diluted in assay buffer; His6-TEV (N, cleaved yes); made in house; host or cells: E. coli BL21(DE3)
T1 sequence (Q06124 1-593): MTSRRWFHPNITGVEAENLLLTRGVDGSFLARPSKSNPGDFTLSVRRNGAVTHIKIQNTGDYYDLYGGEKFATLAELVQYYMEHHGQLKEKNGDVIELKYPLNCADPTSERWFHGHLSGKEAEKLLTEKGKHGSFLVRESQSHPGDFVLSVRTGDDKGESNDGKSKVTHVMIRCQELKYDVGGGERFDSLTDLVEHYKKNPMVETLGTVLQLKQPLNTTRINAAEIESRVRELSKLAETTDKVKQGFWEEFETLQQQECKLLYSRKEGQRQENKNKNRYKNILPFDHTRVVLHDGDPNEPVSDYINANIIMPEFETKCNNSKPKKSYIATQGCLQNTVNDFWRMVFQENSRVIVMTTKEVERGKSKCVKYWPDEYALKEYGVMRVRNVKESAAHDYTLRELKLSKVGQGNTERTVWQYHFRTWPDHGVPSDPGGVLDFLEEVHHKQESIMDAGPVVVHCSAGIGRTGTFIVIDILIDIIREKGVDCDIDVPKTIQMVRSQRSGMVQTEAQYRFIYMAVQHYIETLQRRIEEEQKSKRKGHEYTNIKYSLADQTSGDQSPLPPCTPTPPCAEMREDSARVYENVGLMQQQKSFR
Protocol: SHP2 activation assays using phosphopeptides
Full-length SHP2 constructs were diluted in assay buffer (60 mM HEPES pH 7.2, 75 mM KCl, 75 mM NaCl,1 mM EDTA, 0.05% Tween-20, with 0.5 mM TCEP freshly added) to a 2X concentration of 0.1 nM. Peptides were serially diluted in assay buffer, with the last point of the concentration series fully without peptide. 15 μL of peptide and 15 μL of 800 μM DiFMUP was added to a black 96-well half area plate. Right before starting the plate reader assay, 30 μL SHP2 was added to each well a Supplementary Information - page 4 of 18 […]
final concentration of 0.05nM. Kinetic measurements (Ex 358/Em […]) were taken on a BioTek Neo2 plate reader every 25 seconds for 6 minutes. […]
OD600 reached 0.5. 20 mL of cell suspension was induced at 25 °C using a final concentration of 0.4% arabinose until the OD600 ~ 1 (after approximately 4 hours). The cells were spun down at 4000 rpm for 15 minutes, and the pellet was resuspended in PBS so that the OD600 ~1.5. The cells were stored in the fridge and used within a week.
For each sample, 75 μL of Dynabeads™ FlowComp™ Flexi Kit were washed twice in 1 mL SH2 buffer (50 mM HEPES pH 7.5, 150 mM NaCl, 1 mM TCEP, and 0.2% BSA) on a magnetic rack.
The beads were then resuspended in 75 μL of SH2 buffer. SH2 domains were thawed quickly and 20 μM of protein was added to the beads. SH2 buffer was added up to 150 μL, and the suspension was incubated for 1 hour at 4 °C while rotating. After 1 hour, the suspension was placed on a magnetic rack and washed twice with 1 mL SH2 buffer.
Preparing the phosphorylated cells
150 μL of prepared cells per sample were spun down for 4000 rpm for 5 minutes at 4 °C.
Kinase screen buffer was prepared (50 mM Tris, 10 mM magnesium chloride, 150 mM sodium chloride; add 2 mM sodium orthovanadate and 1 mM TCEP fresh) and the cells of each sample were resuspended in 100 μL kinase screen buffer. Kinases c-Src, c-Abl, AncSZ, Eph1B were added to a final concentration of 2.5 µM each, creatine phosphate was added to a final concentration of 5 mM, and phosphokinase was added to a final concentration of 50 µg/mL. The suspension was incubated at 37 °C for 5 minutes before ATP was added to a final concentration of 1 mM. This mixture was incubated at 37 °C for 3 hours. After 3 hours, EDTA was added to a final concentration of 25 mM to quench the reaction. The input library control sample was not phosphorylated. These cells were spun down at 4000 rpm for 15 minutes at 4 °C. The cells were then resuspended in 100 µL of SH2 buffer + 0.1% BSA. Phosphorylation of the cells was confirmed by labeling with the PY20-PerCP-eFluor 710 pan-phosphotyrosine antibody followed by analysis via flow cytometry.
Enriching for cells displaying high-affinity phosphopeptide ligands
100 μL of phosphorylated cells were mixed with 75 µL SH2-beads for 1 hour at 4 °C while rotating. After 1 hour, samples were placed on a magnetic rack, supernatant was removed and 1 mL SH2 buffer was added to each sample. This was rotated for 30 minutes at 4 °C to wash the beads.
After this wash, the beads were placed on a magnetic rack, the supernatant was removed and 50 µL […]
Preparing sequencing samples & deep sequencing
All SH2-selected samples and the input library control were resuspended in 50 µL MilliQ water, vortexed, and boiled for 10 minutes at 100 °C. The boiled lysate was used as the DNA template in a PCR reaction using the TruSeq-eCPX-Fwd and TruSeq-eCPX-Rev primers. The mixture resulting from this PCR was used directly into a second PCR to append Illumina sequencing adaptors and Supplementary Information - page 5 of 18

[2] = target: T2, full-length SHP2^T42A (Homo sapiens, UniProt Q06124, T42A); assay: SHP2 activation assay using phosphopeptides (DiFMUP), SHP2 T42A; assay type: biochemical; conditions: activation of full-length SHP2 T42A (0.05 nM) by phosphopeptide; DiFMUP substrate; HEPES pH 7.2 assay buffer; mean of N (column N)
T2 construct: Full-length SHP2 constructs were diluted in assay buffer; His6-TEV (N, cleaved yes); made in house; host or cells: E. coli BL21(DE3)
T2 sequence (Q06124 1-593 T42A): T1 sequence (Q06124 1-593) with T42A

CC[C@H](C)[C@H](NC(=O)[C@@H](NC(=O)[C@H](C)NC(=O)[C@H](Cc1ccc(OP(=O)(O)O)cc1)NC(=O)[C@@H](NC(=O)[C@@H]1CCCN1C(=O)[C@H](CCC(=O)O)NC(=O)[C@@H]1CCCN1C(=O)[C@H](CO)NC(=O)[C@@H](NC(C)=O)C(C)C)[C@@H](C)CC)[C@@H](C)O)C(=O)N[C@@H](CC(=O)O)C(=O)N[C@@H](CC(=O)O)C(=O)N[C@@H](CC(C)C)C(N)=O
EC50 [1]: 39.4 µM
EC50 [2]: 6.96 µM

CC(=O)N[C@@H](CO)C(=O)N[C@H](C(=O)NCC(=O)N[C@@H](CO)C(=O)N[C@H](C(=O)N[C@@H](CC(=O)O)C(=O)N[C@@H](Cc1ccc(OP(=O)(O)O)cc1)C(=O)N[C@@H](CC(C)C)C(=O)N[C@@H](C)C(=O)N[C@@H](CC(C)C)C(=O)N[C@@H](CC(=O)O)C(=O)N[C@@H](Cc1ccccc1)C(=O)N[C@@H](CCC(N)=O)C(N)=O)C(C)C)[C@@H](C)O
EC50 [1]: 8.52 µM
EC50 [2]: 0.902 µM

CC[C@H](C)[C@H](NC(=O)[C@H](Cc1ccc(OP(=O)(O)O)cc1)NC(=O)[C@H](CC(N)=O)NC(=O)[C@H](CC(C)C)NC(=O)CNC(=O)[C@H](CC(N)=O)NC(=O)[C@H](CCC(=O)O)NC(=O)[C@H](CC(C)C)NC(C)=O)C(=O)N[C@@H](CC(=O)O)C(=O)N[C@@H](CC(C)C)C(=O)N[C@@H](CC(=O)O)C(=O)N[C@@H](CC(C)C)C(=O)N[C@H](C(N)=O)C(C)C
EC50 [1]: 1.75 µM
EC50 [2]: 0.581 µM

CC[C@H](C)[C@H](NC(=O)[C@H](CC(N)=O)NC(=O)[C@@H](NC(=O)[C@H](Cc1ccc(OP(=O)(O)O)cc1)NC(=O)[C@H](CCC(=O)O)NC(=O)CNC(=O)[C@@H]1CCCN1C(=O)[C@H](CO)NC(=O)[C@H](CCCCN)NC(=O)[C@@H]1CCCN1C(C)=O)C(C)C)C(=O)N[C@@H](CCC(=O)O)C(=O)N[C@@H](Cc1ccccc1)C(=O)NCC(N)=O
EC50 [1]: 29.3 µM
EC50 [2]: 20 µM

CSCC[C@H](NC(=O)[C@H](CC(C)C)NC(=O)[C@H](CCC(N)=O)NC(=O)[C@H](C)NC(=O)[C@H](Cc1ccc(OP(=O)(O)O)cc1)NC(=O)[C@H](CC(N)=O)NC(=O)[C@H](CC(C)C)NC(=O)[C@H](C)NC(=O)[C@H](C)NC(=O)[C@H](CCCCN)NC(=O)[C@H](CCCCN)NC(C)=O)C(=O)N[C@@H](Cc1ccccc1)C(=O)N1CCC[C@H]1C(N)=O
EC50 [1]: 1.32 µM
EC50 [2]: 0.735 µM

CC(=O)N[C@@H](C)C(=O)N[C@@H](CCCCN)C(=O)N[C@@H](CO)C(=O)NCC(=O)N[C@@H](C)C(=O)N[C@H](C(=O)N[C@@H](Cc1ccc(OP(=O)(O)O)cc1)C(=O)N[C@@H](CO)C(=O)N[C@@H](CCC(=O)O)C(=O)N[C@@H](CC(C)C)C(=O)N[C@@H](CC(N)=O)C(=O)N[C@@H](Cc1ccccc1)C(=O)NCC(N)=O)C(C)C
EC50 [1]: 233 µM
EC50 [2]: 32.7 µM

CC(=O)N1CCC[C@H]1C(=O)N[C@H](C(=O)N[C@@H](Cc1ccccc1)C(=O)N[C@@H](CO)C(=O)N[C@H](C(=O)N[C@@H](CC(=O)O)C(=O)N[C@@H](Cc1ccc(OP(=O)(O)O)cc1)C(=O)NCC(=O)N[C@@H](CCC(=O)O)C(=O)N[C@@H](CC(C)C)C(=O)N[C@@H](CC(=O)O)C(=O)N[C@@H](Cc1ccccc1)C(=O)N[C@@H](CCC(N)=O)C(N)=O)C(C)C)C(C)C
EC50 [1]: 18.9 µM
EC50 [2]: 2.89 µM

CC[C@H](C)[C@H](NC(=O)[C@@H](NC(=O)[C@H](C)NC(=O)[C@H](Cc1ccc(OP(=O)(O)O)cc1)NC(=O)[C@H](CCC(=O)O)NC(=O)[C@@H](NC(=O)[C@H](CCC(N)=O)NC(=O)[C@H](CCC(=O)O)NC(=O)[C@@H]1CCCN1C(=O)[C@@H](NC(C)=O)C(C)C)[C@@H](C)O)[C@@H](C)O)C(=O)N[C@H](C(=O)N[C@@H](Cc1ccccc1)C(=O)N1CCC[C@H]1C(N)=O)C(C)C
EC50 [1]: 5.37 µM
EC50 [2]: 0.88 µM

CC[C@H](C)[C@H](NC(=O)[C@H](CC(=O)O)NC(=O)[C@H](C)NC(=O)[C@H](Cc1ccc(OP(=O)(O)O)cc1)NC(=O)[C@H](CCCCN)NC(=O)[C@@H](NC(=O)[C@H](CC(=O)O)NC(=O)CNC(=O)[C@H](CCCCN)NC(=O)[C@H](CCSC)NC(C)=O)C(C)C)C(=O)N[C@@H](CCC(=O)O)C(=O)N[C@@H](CO)C(=O)N[C@@H](CO)C(N)=O
EC50 [1]: 90.5 µM
EC50 [2]: 15.1 µM
